We go through two substances from patent publication US7404948B2, “Peptidic conjugates for alopecia prevention and treatment” (Institut Europeen de Biologie Cellulaire, priority 2003, dated 2008).

Non-standard residues stand in square brackets, D forms with d. hPhe = N[C@@H](CCc1ccccc1)C(=O)O

The experiment concerns anagen-phase mouse vibrissae hair follicles. Nature of the experiment: Growth of mouse vibrissae in vitro (hair follicle culture, Philpott technique). It is filed as cell-based. Also noted: unit not given here. As to conditions: peptide 10^−7 M, A is acetic acid. The text has this:
The Effects of Various Peptides on the Growth of Mouse Vibrissae In Vitro
The growth of the hair shaft of these hair follicles was followed for several days (Day 0 to Day 4). The results are reported in the table below for peptides 1- and 2-described above, for which A is acetic acid.

Take “A-Arg-Lys-Asp-Val-DHomoPhe-NH2 [Peptide 1-]”: the “growth of the hair shaft” value is listed as 0.00 (Day 0); 0.90 (Day 1); 1.38 (Day 2); 1.86 (Day 3); 1.87 (Day 4).
For “Ac-Arg-Lys-Asp-Val-HomoPhe-NH2 (Ac-RKDV[hPhe]-NH2; also: acetate salt) [Peptide 2-]”, in that order: 0.00, 0.83, 1.46, 1.62 and 1.62.
